According to patent EP0058890A1, “Antithrombotic compounds” (THE WELLCOME FOUNDATION LIMITED, priority 1981, dated 1982):
Read-outs that look alike come from different tables or passages of the source.

Legend:
adjuvant arthritis = test: Adjuvant Arthritis Assay (Chronic); assay type: in vivo, rat; details: po, 336 h, read-out: ED50, development of adjuvant arthritis
gastric damage = assay type: in vivo; details: rat
platelets [1] = test: Ex vivo platelet aggregation after oral dosing, arachidonate and collagen (method of Born), guinea pig; assay type: in vivo; details: Cavia porcellus, read-out: dose required to inhibit aggregation rate by 50% (ED50)
Experimental: (§1) b. Ex vivo studies: The aggregation of platelets taken from animals dosed by the oral route with Compound II is inhibited when tested with arachidonate and collagen by the method of Born ((1962) Nature 194, 927, 929). The dose required to inhibit aggregation rate by 50% (ED50) at 1 hour was 5 mg/kg and 10 mg/kg in the guinea pig and rat, respectively. By comparison, the ED50 for aspirin in the guinea pig was 30 mg/kg, while the ED50 for aspirin in the rat was 10 mg/kg. The ED50 for indomethacin was 10 mg/kg and 5 mg/kg in the guinea pig and rat, respectively. In the dog, 10 mg/kg p.o. was an ED50 for as long as 6 hr.

platelets [2] = test: Ex vivo platelet aggregation after oral dosing, arachidonate and collagen (method of Born), rat; assay type: in vivo; details: read-out: dose required to inhibit aggregation rate by 50% (ED50)
Experimental: as §1

exudate fluid volume = test: Carrageenin Pleurisy Assay (Acute); assay type: in vivo, rat; details: 3 h, read-out: 3 hr. ED50 against exudate fluid volume
Excerpt: a. […] In this assay, the 3 hr.

dog platelets = test: Ex vivo platelet aggregation after oral dosing, dog; assay type: in vivo; details: Canis lupus familiaris, for as long as 6 hr
Experimental: as §1

[3] = test system: subplantar injection of trypsin; test: Modified Trypsin Hyperalgesic Assay; assay type: in vivo; details: drug administration 15 minutes before subplantar trypsin
gastric erosion = assay type: in vivo; details: guinea pig
[4] = test system: Yeast-induced hyperthermia; test: Yeast-Induced Hyperthermia Assay; assay type: in vivo, rat
[5] = test system: stasis-induced jugular vein thrombosis; test: Protection against stasis-induced jugular vein thrombosis; assay type: in vivo; details: guinea pig; given 1 hour prior to ligation
Experimental: b. Protection against stasis-induced jugular vein thrombosis: When a 1 cm length of guinea pig jugular vein is ligated in situ, a thrombus forms within 30 min. Six mg/kg p.o. of either Compound II or aspirin given 1 hour prior to ligation protected 50% of the animals from thrombosis.

| Compound | ED50 (adjuvant arthritis; rat, by gavage for 14 days) | gastric damage (gastric damage; in vivo, po, 75 mg/kg/day) | gastric damage (gastric damage; in vivo, po, 150 mg/kg) | ED50 (platelets [1]; guinea pig, oral route, at 1 hour, arachidonate and collagen) | ED50 (platelets [2]; rat, oral route, at 1 hour, arachidonate and collagen) | ED50 (exudate fluid volume; rat, oral route) | ED50 (dog platelets) | ED50 ([3]; read-out: ED50) | gastric damage (gastric erosion; in vivo, po, 100 mg/kg/day) | ED50 (adjuvant arthritis; Rattus norvegicus) | gastric damage (gastric damage; single oral dose of 30 mg/kg) | ED50 (platelets [1]; po, 1 h) | ED50 ([4]; Rattus norvegicus, po) | hypothermia ([4]; rat, for Compound II 3-4 hours after dosing) | dose that protected 50% of the animals from thrombosis [5] | ED50 (platelets [2]; Rattus norvegicus, po, 1 h) | ED50 (exudate fluid volume; Rattus norvegicus, po) | ED50 [3] | gastric damage (gastric erosion; 100 mg/kg/day p.o. for 3 days) | gastric damage (gastric damage; single oral dose of 5 mg/kg) |
| --- | --- | --- | --- | --- | --- | --- | --- | --- | --- | --- | --- | --- | --- | --- | --- | --- | --- | --- | --- | --- |
| CN(C)CCOc1ccccc1-c1nc(-c2ccccc2)c(-c2ccccc2)[nH]1 [Compound II] | 294 mg/kg | does not produce gastric damage | does not produce gastric damage | 5 mg/kg | 10 mg/kg | 37 mg/kg | 10 mg/kg | ~50 mg/kg | very slight gastric erosion |  |  |  |  |  |  |  |  |  |  |  |
| CC(=O)Oc1ccccc1C(=O)O [aspirin] |  |  |  |  |  |  |  |  |  | 175 mg/kg | produces ulcers and hemorrhages | 30 mg/kg | 50 mg/kg | does not produce hypothermia | Six | 10 mg/kg | 28 mg/kg | inactive | severe ulceration and hemorrhage |  |
| COc1ccc2c(c1)c(CC(=O)O)c(C)n2C(=O)c1ccc(Cl)cc1 [indomethacin] |  |  |  |  |  |  |  |  |  | 1 mg/kg |  | 10 mg/kg |  |  |  | 5 mg/kg | 2 mg/kg | inactive |  | produces ulcers |
